According to the supplement of paper PMC11061612:

Columns and labels:
[1] = compound: CC(C)n1c(=O)n(C)c2cnc3cc(F)c(-c4ccc(OCCCN5CCCCC5)nc4)cc3c21 [AZD1390]; settings: max 0.3 µM
Method in brief: (§1)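 Cancer cell lines in 1536-well plates (7.5 μl DMEM/F12 or RPMI, 10% FBS) were held 24 hours at 37°C and 5% CO2 and then dosed for 72 hours at a final DMSO of typically 0.2%. Viability was taken from CellTiter-Glo 2.0 luminescence, scaled between blank-well and DMSO-well means. Curves were fitted as two-parameter logistic models with a non-linear mixed effects model, from which the single-agent IC50 was taken.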

[2] = compound: CC(=O)c1c(C)c2cnc(Nc3ccc(N4CCNCC4)cn3)nc2n(C2CCCC2)c1=O [Palbociclib]; settings: max 10 µM
Method in brief: as §1

[3] = compound: CC1=C(C(=CC=C1)Cl)NC(=O)C2=CN=C(S2)NC3=CC(=NC(=N3)C)N4CCN(CC4)CCO [Dasatinib]; settings: max 2 µM
Method in brief: as §1

[4] = compound: CS(=O)(=O)CCNCc1ccc(-c2ccc3ncnc(Nc4ccc(OCc5cccc(F)c5)c(Cl)c4)c3c2)o1 [Lapatinib]; settings: max 10 µM
Method in brief: as §1

[5] = compound: COc1cccc(OCCCN)c1-c1cc(Nc2cnc(C#N)cn2)n[nH]1 [Prexasertib]; settings: max 1 µM
Method in brief: as §1

[6] = compound: C1CN(CCC1(C(=O)N[C@@H](CCO)C2=CC=C(C=C2)Cl)N)C3=NC=NC4=C3C=CN4 [Capivasertib]; settings: max 10 µM
Method in brief: as §1

[7] = compound: CN(C)CCCOc1ccc(-c2ccc3ncc4c(c3c2)n(C2CCOCC2)c(=O)n4C)cn1 [AZD0156]; settings: max 3 µM
Method in brief: as §1

[8] = compound: COc1cccc2c1C(=O)c1c(O)c3c(c(O)c1C2=O)C[C@@](O)(C(=O)CO)C[C@@H]3O[C@H]1C[C@H](N)[C@H](O)[C@H](C)O1 [Doxorubicin]; settings: max 1 µM
Method in brief: as §1

[9] = compound: C[C@@H](c1ccc2nccn2c1)n1nnc2ncc(-c3cnn(C)c3)nc21 [Savolitinib]; settings: max 1 µM
Method in brief: as §1

[10] = compound: CCc1c2c(nc3ccc(O)cc13)-c1cc3c(c(=O)n1C2)COC(=O)[C@]3(O)CC [SN-38]; settings: max 0.3 µM
Method in brief: as §1

[11] = compound: Cc1nc(-c2cn3c(n2)-c2ccc(-c4cnn(C(C)(C)C(N)=O)c4)cc2OCC3)n(C(C)C)n1 [Taselisib]; settings: max 10 µM
Method in brief: as §1

[12] = compound: CN(CC[C@H](CSC1=CC=CC=C1)NC2=C(C=C(C=C2)S(=O)(=O)NC(=O)C3=CC=C(C=C3)N4CCC(CC4)[C@H](C5=CC=CC=C5C6=CC=C(C=C6)Cl)O)S(=O)(=O)C(F)(F)F)CCO [AZD4320]; settings: max 1 µM
Method in brief: as §1

[13] = compound: CC(=O)Nc1cccc(-n2c(=O)n(C3CC3)c(=O)c3c(Nc4ccc(I)cc4F)n(C)c(=O)c(C)c32)c1 [Trametinib]; settings: max 1 µM
Method in brief: as §1

[14] = compound: C[C@@H](Nc1cc(F)cc(F)c1)c1cc(C(=O)N(C)C)cc2c(=O)cc(N3CCOCC3)oc12 [AZD8186]; settings: max 3 µM
Method in brief: as §1

[15] = compound: C=CCn1c(=O)c2cnc(Nc3ccc(N4CCN(C)CC4)cc3)nc2n1-c1cccc(C(C)(C)O)n1 [AZD1775]; settings: max 3 µM
Method in brief: as §1

[16] = compound: COc1cc2ncnc(Nc3ccc(F)c(Cl)c3)c2cc1OCCCN1CCOCC1 [Gefitinib]; settings: max 10 µM
Method in brief: as §1

[17] = compound: O=C(c1cc(Cc2n[nH]c(=O)c3ccccc23)ccc1F)N1CCN(C(=O)C2CC2)CC1 [Olaparib]; settings: max 10 µM
Method in brief: as §1

[18] = compound: COc1nnc2ccc(N3CCC(c4ccc(OCCN5CCN(C)C(=O)[C@H]5C)cc4)CC3)nn12 [AZD5153]; settings: max 1 µM
Method in brief: as §1

[19] = compound: C[C@@H](Oc1cc(-c2cnn(C3CCNCC3)c2)cnc1N)c1c(Cl)ccc(F)c1Cl [Crizotinib]; settings: max 10 µM
Method in brief: as §1

[20] = compound: C[C@@H]1COCCN1C2=NC(=NC(=C2)C3(CC3)[S@](=N)(=O)C)C4=C5C=CNC5=NC=C4 [AZD6738]; settings: max 10 µM
Method in brief: as §1

[21] = compound: Cn1cnc2c(F)c(Nc3ccc(Br)cc3Cl)c(C(=O)NOCCO)cc21 [Selumetinib]; settings: max 10 µM
Method in brief: as §1

[22] = compound: COc1cc(Nc2ncc3c(n2)-c2ccc(Cl)cc2C(c2c(F)cccc2OC)=NC3)ccc1C(=O)O [Alisertib]; settings: max 10 µM
Method in brief: as §1

[23] = compound: CCN(CCO)CCCOc1ccc2c(Nc3cc(CC(=O)Nc4cccc(F)c4)[nH]n3)ncnc2c1 [AZD2811]; settings: max 1 µM
Method in brief: as §1

[24] = compound: Cc1cc2ncnn2cc1Nc1ncc2c(n1)n(C1CCOCC1)c(=O)n2C [AZD7648]; settings: max 10 µM
Method in brief: as §1

[25] = compound: Cc1c2c(nn1C)CSCc1cc(n(C)n1)CSc1cc(c3ccccc3c1)OCCCc1c(C(=O)O)n(C)c3c-2c(Cl)ccc13 [AZD5991]; settings: max 1 µM
Method in brief: as §1

[26] = compound: CC1(C)CCC(CN2CCN(c3ccc(C(=O)NS(=O)(=O)c4ccc(NCC5CCOCC5)c([N+](=O)[O-])c4)c(Oc4cnc5[nH]ccc5c4)c3)CC2)=C(c2ccc(Cl)cc2)C1 [Venetoclax]; settings: max 1 µM
Method in brief: as §1

[27] = compound: CC1=CN2[C@@H](C1)C=NC3=CC(=C(C=C3C2=O)OC)OCCCCCOC4=C(C=C5C(=C4)N=C[C@@H]6CC(=CN6C5=O)C)OC [SG3199]; settings: max 0.001 µM
Method in brief: as §1

Row | Cell Line | IC50, cell viability 72 h [1] | IC50, cell viability 72 h [2] | IC50, cell viability 72 h [3] | IC50, cell viability 72 h [4] | IC50, cell viability 72 h [5] | IC50, cell viability 72 h [6] | IC50, cell viability 72 h [7] | IC50, cell viability 72 h [8] | IC50, cell viability 72 h [9] | IC50, cell viability 72 h [10] | IC50, cell viability 72 h [11] | IC50, cell viability 72 h [12] | IC50, cell viability 72 h [13] | IC50, cell viability 72 h [14] | IC50, cell viability 72 h [15] | IC50, cell viability 72 h [16] | IC50, cell viability 72 h [17] | IC50, cell viability 72 h [18] | IC50, cell viability 72 h [19] | IC50, cell viability 72 h [20] | IC50, cell viability 72 h [21] | IC50, cell viability 72 h [22] | IC50, cell viability 72 h [23] | IC50, cell viability 72 h [24] | IC50, cell viability 72 h [25] | IC50, cell viability 72 h [26] | IC50, cell viability 72 h [27]
1 | 23132-87 (Gastric Carcinoma) | > 300 nM | > 10 µM | > 2000 nM | > 10 µM | 32.6 nM | > 10 µM | > 3000 nM | 369 nM | > 1000 nM | 22.1 nM | > 10 µM | > 1000 nM | > 1000 nM | > 3000 nM | 375 nM | > 10 µM | > 10 µM | > 1000 nM | > 10 µM | 4.79 µM | > 10 µM | > 10 µM | > 1000 nM | > 10 µM | 348 nM | > 1000 nM | > 1 nM
2 | CAL-120 (Breast Carcinoma) | > 300 nM | > 10 µM | > 2000 nM | > 10 µM | 656 nM | > 10 µM | > 3000 nM | > 1000 nM | > 1000 nM | 296 nM | > 10 µM | 825 nM | > 1000 nM | > 3000 nM | 1620 nM | > 10 µM | > 10 µM | > 1000 nM | > 10 µM | > 10 µM | > 10 µM | > 10 µM | > 1000 nM | > 10 µM | > 1000 nM | > 1000 nM | > 1 nM
3 | FADU (Head and Neck Carcinoma) | > 300 nM | > 10 µM | > 2000 nM | 3.16 µM | 79.1 nM | > 10 µM | > 3000 nM | 312 nM | > 1000 nM | 6.3 nM | 3.32 µM | > 1000 nM | > 1000 nM | > 3000 nM | > 3000 nM | 9.02 µM | > 10 µM | > 1000 nM | > 10 µM | > 10 µM | > 10 µM | > 10 µM | > 1000 nM | > 10 µM | 407 nM | > 1000 nM | > 1 nM
4 | GB-1 (Glioblastoma) | > 300 nM | > 10 µM | > 2000 nM | > 10 µM | 951 nM | > 10 µM | > 3000 nM | > 1000 nM | > 1000 nM | 32.7 nM | 9.75 µM | > 1000 nM | > 1000 nM | > 3000 nM | > 3000 nM | > 10 µM | > 10 µM | > 1000 nM | > 10 µM | > 10 µM | > 10 µM | > 10 µM | > 1000 nM | > 10 µM | > 1000 nM | > 1000 nM | > 1 nM
5 | GP5d (Colorectal Carcinoma) | > 300 nM | > 10 µM | > 2000 nM | > 10 µM | 23.3 nM | 1.5 µM | > 3000 nM | 552 nM | > 1000 nM | 73 nM | 0.254 µM | > 1000 nM | 17.4 nM | > 3000 nM | 542 nM | > 10 µM | > 10 µM | 168 nM | 6.99 µM | 3.64 µM | 0.34 µM | 5.02 µM | 764 nM | > 10 µM | 329 nM | > 1000 nM | > 1 nM
6 | HCT-15 (Colorectal Carcinoma) | > 300 nM | > 10 µM | 1730 nM | > 10 µM | 139 nM | > 10 µM | > 3000 nM | 619 nM | > 1000 nM | 53.5 nM | 3.86 µM | > 1000 nM | > 1000 nM | > 3000 nM | 544 nM | > 10 µM | > 10 µM | 227 nM | 7.41 µM | 4 µM | > 10 µM | 4.21 µM | > 1000 nM | > 10 µM | > 1000 nM | > 1000 nM | > 1 nM
